Measured values published in patent US12349677B2, “Antimicrobial composition” (CONOPCO, INC., priority 2018, dated 2025).

Test system: E. coli ATCC 10536
Experiment: In-vitro antibacterial efficacy (bacteria remaining after 4 hours contact, plate count)
Format: cell-based
Details: contact time 4 hours at 37° C.
Description: The following samples were tested for in-vitro antibacterial efficacy using the below mentioned protocol
Sodium phosphate buffer 10 mM for culture preparation pH 7.4
The test organism was subcultured from the glycerol stock (stored at −70° C.) onto a TSA slant and incubated at 37° C. for 18 to 24 hours. The slant was stored in a refrigerator for a maximum of two weeks after which a fresh slant was prepared.
The test organisms were streaked from TSA slants onto petri plates containing TSA and incubated at 37° C. for 21 to 22 hours before use.
The bacterial inoculums were prepared corresponding to 10^6 cells in 10 mM Sodium Phosphate Buffer from the above plate.
The OD of culture was adjusted to 0.8 for E. coli, to give 10^8 cells/ml. Once the bacterial inoculums corresponding to 10^8 cells is prepared in sodium phosphate buffer, it is serially diluted to 10^6 cells ([…] in 10 mM sodium phosphate buffer)
135 μl bacterial inoculums (from 10^6 CFU/ml) was taken for all the treatments in a reaction volume of 300 μl (in a microtiter plate/96 well plate).
15 μl of 100 mM buffer was taken for all controls and treatments so that the final conc. corresponds to ˜5 mM in all the reactions.
The respective compounds/actives to be tested were taken and made up to a volume of 300 μl with autoclaved distilled water.
Note: Each treatment is kept in duplicates.
The microtiter plate was incubated at 37° C. for a contact time of 4 hours and then plated on TSA after required serial dilutions in neutralizer D/E to study bacterial kill.
Plates were incubated overnight for E. coli
The colonies were counted to estimate the bacteria remaining and thereby the log kill.
Experiments similar to the ones carried out for thymol+THPE were carried out with carvacrol+THPE. The antibacterial efficacy was measured in vitro as detailed above for examples 1 and A-C.
Experiments similar to the ones carried out for thymol+THPE were carried out with eugenol+THPE. The antibacterial efficacy was measured in vitro as detailed above for examples 1 and A-C.

[1] = Table 1, thymol/THPE series, culture control 6.36
[2] = Table 4, carvacrol/THPE series, culture control 6.41
[3] = Table 5, eugenol/THPE series, culture control 6.23

CC(O)CN(CCN(CC(C)O)CC(C)O)CC(C)O (stereo not shown) [B, tetrahydroxypropyl ethylenediamine]
Average of bacteria remaining [1]: 5.98 log cfu/ml

Cc1ccc(C(C)C)c(O)c1 [C, thymol]
Average of bacteria remaining [1]: 6.26 log cfu/ml

Cc1ccc(C(C)C)cc1O [F, carvacrol]
Average of bacteria remaining [2]: 6.12 log cfu/ml

CC(O)CN(CCN(CC(C)O)CC(C)O)CC(C)O (stereo not shown) [G, tetrahydroxypropyl ethylenediamine]
Average of bacteria remaining [2]: 5.97 log cfu/ml

CC(O)CN(CCN(CC(C)O)CC(C)O)CC(C)O (stereo not shown) [H, tetrahydroxypropyl ethylenediamine]
Average of bacteria remaining [2]: 5.45 log cfu/ml

C=CCc1ccc(O)c(OC)c1 [J, Eugenol]
Average of bacteria remaining [3]: 6.15 log cfu/ml

CC(O)CN(CCN(CC(C)O)CC(C)O)CC(C)O (stereo not shown) [K, tetrahydroxypropyl ethylenediamine]
Average of bacteria remaining [3]: 5.44 log cfu/ml
